Assay results reported in patent US11360080B2, “AhR-ROR-γt complex as a biomarker and therapeutic target for autoimmune disease and IL-17A-associated disease” (NATIONAL HEALTH RESEARCH INSTITUTES, priority 2018, dated 2022).
Where a name gives a salt, the structure may show the parent alone.

How the values were obtained:
GLK kinase domain = target: T1, GLK kinase domain (Homo sapiens, UniProt Q8IVH8); assay: In vitro GLK kinase assay (ADP-GLO) with kinase-dead PKCθ (K409W) as substrate; format: biochemical; conditions: screening of 101,200 compounds
T1 construct: recombinant proteins of the GLK kinase-domain (1 μg) were incubated with recombinant proteins of kinase-dead PKCθ
T1 sequence (Q8IVH8 16-273 limits assumed): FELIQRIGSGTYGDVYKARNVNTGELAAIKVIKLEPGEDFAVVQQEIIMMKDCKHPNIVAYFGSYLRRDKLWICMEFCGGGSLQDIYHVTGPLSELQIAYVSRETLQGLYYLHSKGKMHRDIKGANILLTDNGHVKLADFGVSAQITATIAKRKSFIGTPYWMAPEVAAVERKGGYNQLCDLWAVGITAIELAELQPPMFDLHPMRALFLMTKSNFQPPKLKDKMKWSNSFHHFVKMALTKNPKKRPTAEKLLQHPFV
Description: (A) Luciferase activity of NF-κB-driven reporter assays in stable GLK-transfected CHO-K1 cells that were treated with or without the GLK inhibitor C1 (verteporfin) under the indicated concentration. The fold changes are presented relative to the value of vector control. (B) Recombinant proteins of GLK kinase domain plus recombinant proteins of GST-tagged kinase-dead PKCθ (K409W) were subjected to in vitro kinase assays in the presence or absence of the GLK inhibitor C1 (verteporfin). Means±SD of are shown. *, P value<0.05; **, P value<0.01 (two-tailed Student's t-test). (C) The AhR-RORγt complex was inhibited by the GLK inhibitor. Confocal microscopy of proximity ligation assays (PLA) for the interaction between AhR and either RORγt or phospho-RORγt (S489) in peripheral blood T cells treated with C1 (verteporfin) (5 μM) for 30 min. The T cells were freshly isolated from 4 SLE patients and 1 RA patients. C1 denotes verteporfin; C2 denotes alexidine dihydrochloride. (D) Quantification of the PLA signals of (C). (E) FRET assays of HEK293T cells co-transfected with CFP-AhR, YFP-RORγt, and IKKβ plasmids.
GLK kinase activity was determined by measuring the rate of ADP production in the in vitro kinase reaction using ADP-GLO™ Kinase Assay kit. For the kinase reaction, recombinant proteins of the GLK kinase-domain (1 μg) were incubated with recombinant proteins of kinase-dead PKCθ (K409W; 0.15 μg) plus ATP (0.1 mM) or myelin basic protein (MBP) plus ATP (0.1 mM) in kinase buffer (40 mM Tris-HCl, pH7.5.20 mM MgCl2, 0.1 mg/ml BSA, 10 mM DTT and 0.1 mM Na3VO4) for 30 min at room temperature.
Cell-based high-throughput screening was conducted against a representative library of 100,000 molecules at ˜10 μM. CHO-GLK-Luc cells expressing GLK and NF-κB-luciferase reporter were used. The reaction volume was 5 μl (500 cells) per well in 1,536-well plates. There was no positive control. This high-throughput screening campaign was successful with a determined Z′ factor of 0.57˜0.60. […]

AhR-RORγt complex = assay: Proximity ligation assay (PLA) in peripheral blood T cells of SLE and RA patients; format: cell-based, human; conditions: 5 μM for 30 min
Description: (A) Luciferase activity of NF-κB-driven reporter assays in stable GLK-transfected CHO-K1 cells that were treated with or without the GLK inhibitor C1 (verteporfin) under the indicated concentration. The fold changes are presented relative to the value of vector control. (B) Recombinant proteins of GLK kinase domain plus recombinant proteins of GST-tagged kinase-dead PKCθ (K409W) were subjected to in vitro kinase assays in the presence or absence of the GLK inhibitor C1 (verteporfin). Means±SD of are shown. *, P value<0.05; **, P value<0.01 (two-tailed Student's t-test). (C) The AhR-RORγt complex was inhibited by the GLK inhibitor. […] (D) Quantification of the PLA signals of (C). […]
PLA assays were performed using the DUOLINK® In Situ Red Starter kit (Sigma) according to the manufacturer's instructions. […] After ligation and amplification reactions, the PLA signals from each pair of PLA probes in close proximity (<40 nm) were visualized as individual red dots by a fluorescence microscope (Leica DM2500) or a confocal microscope (Leica TCS SP5II). […]
T cells of Lck-GLK transgenic mice, GLK-overexpressing T cells, activated T cells or AhR+RORγt+IKKβ-overexpressing cells were used. […] After ligation and amplification reactions, the PLA signals from each pair of PLA probes in close proximity ([…]) were visualized as individual red dots by a fluorescence or a confocal microscope. […]

[1] = system: mouse lung cancer LL2 cells; assay: Transwell migration assay; format: cell-based; conditions: C1 2 uM or 5 uM; C2 2 uM or uM
Description: (§1) Transwell migration assays of human glioma U87 cells, human pancreatic cancer Panc-1 cells, mouse lung cancer LL2 cells, or human hepatoma Huh-7 cells treated with the GLK inhibitor C1 (verteporfin) (a; 2 uM or 5 uM) or C2 (alexidine dihydrochloride) (b; 2 uM or uM). C1 denotes verteporfin; C2 denotes alexidine dihydrochloride.
(§2) For primary cell migration assays, 2×10^5 cells in […] of IMDM with 10% FBS were seeded into the upper chamber of transwells (8 μm pore size, Corning), and the lower chamber was loaded with […] of IMDM with 20% FBS. For cancer cell migration assays, 5×10^4 cells in 200 μl of RPMI 1640 with 10% FBS were seeded into the upper chamber of transwells (8 μm pore size, Corning), and the lower chamber was loaded with […] of RPMI 1640 with 10% FBS. After incubation at 37° C. for 24 h, cells migrating to the lower chamber were imaged and counted by bright-field microscopy following fixation with absolute methanol and staining with 1% crystal violet solution.

human glioma U87 cells = assay: Transwell migration assay; format: cell-based; conditions: C1 2 uM or 5 uM; C2 2 uM or uM
Description: as §1, §2

[2] = system: human hepatoma Huh-7 cells; assay: Transwell migration assay; format: cell-based; conditions: C1 2 uM or 5 uM; C2 2 uM or uM
Description: as §1, §2

[3] = system: human pancreatic cancer Panc-1 cells; assay: Transwell migration assay; format: cell-based; conditions: C1 2 uM or 5 uM; C2 2 uM or uM
Description: as §1, §2

Row | GLK kinase activity in vitro (GLK kinase domain) | GLK kinase activity in vitro (GLK kinase domain; listed as verteporfin) | Compound | AhR-RORγt complex in T cells from SLE and RA patients (AhR-RORγt complex) | PLA signals (quantification) of AhR with RORγt or phospho-RORγt (S489) (AhR-RORγt complex) | migration of lung cancer cells [1] | migration of glioma cells (human glioma U87 cells) | migration of hepatoma cells [2] | migration of pancreatic cancer cells [3]
1 | efficiently inhibited | most effective inhibitor | C=Cc1c(C)c2cc3nc(cc4[nH]c(cc5nc(cc1[nH]2)C(C)=C5CCC(=O)O)c(CCC(=O)OC)c4C)[C@@]1(C)C3=CC=C(C(=O)OC)[C@H]1C(=O)OC [C1, verteporfin] | blocked | inhibited | inhibited | inhibited | inhibited | inhibited
2 | efficiently inhibited |  | CCCCC(CC)CNC(=N)NC(=N)NCCCCCCNC(=N)NC(=N)NCC(CC)CCCC (stereo not shown) [C2, alexidine dihydrochloride] |  |  | inhibited | inhibited | inhibited | inhibited
